Patent publication US4007196A, “4-Phenylpiperidine compounds” (priority 1973, dated 1977)
Where a name gives a salt, the structure may show the parent alone. Read-outs that look alike come from different tables or passages of the source.

Key:
[1] = Antidepressant daily dose; format: in vivo; settings: daily doses
Experimental: In comparison, daily doses of 200-300 mg of imipramine are recommended.

cardiovascular system = experiment: Effect on the cardiovascular system (side-effects); format: in vivo; settings: comparison in words
Source text: Known tricyclic thymoleptics affect the cardiovascular and peripheral autonomic nervous systems causing a wide range of side-effects. Cardiac disturbances and varying degrees of hypotension occur rather frequently and may be very serious.

Acute toxicity in mice = settings: mouse, in vivo
5HT-uptake = experiment: Antagonism of p-chloroamphetamine (PCA)-induced 5HT-depletion from rat brain (5HT-uptake inhibitory activity); format: in vivo; settings: for ED50: rat brain
Source text: 5HT-uptake inhibitory activity
Antagonism of p-chloroamphetamine (PCA)-induced 5HT-depletion from rat brain: […]

[2] = daily doses; cited from earlier work

For `Fc1ccc(C2CCNCC2COc2ccc3c(c2)OCO3)cc1` (single isomer, unassigned) [GF 74, (-)-α-4-(4-Fluorophenyl)-3-(1,3-benzdioxolyl-(3))-oxymethyl piperidine maleate], the “daily dose active as an antidepressant” value [1] was 15 to 25 mg, the “effect on the cardiovascular system compared with tricyclic thymoleptics” value (cardiovascular system) was “affect the cardiovascular system less than do the most common tricyclic thymoleptics” and the LD50 (Acute toxicity in mice; oral administration) was 500 mg/kg. For the same compound, the LD50 (Acute toxicity in mice; sc, subcutaneous injection) was 845 mg/kg.
With `CN(C)CCCN1c2ccccc2CCc2ccccc21` [Imipramine] the “ED50 p.o., antagonism of PCA-induced 5HT-depletion” value (5HT-uptake; po, 3 h) was “+”, the ED50 (5HT-uptake; po, p.o., test drugs administered 2 hours before PCA, read-out: ED50 p.o., antagonism of PCA-induced 5HT-depletion) was 44 mg/kg and the ED50 (5HT-uptake; sc, test drugs administered s.c. simultaneously with PCA, read-out: ED50 s.c., antagonism of PCA-induced 5HT-depletion) was 8 mg/kg. For the same compound, the recommended daily dose [2] was 200 to 300 mg.
